Patent US20210345609A1, “AMINOCARBOXYLIC ACID CHELATING AGENT WITH ANTIFUNGAL ACTIVITY AND SYNERGISTIC USE THEREOF WITH OTHER STERILANTS” (priority 2020, published 2021)
Converted amounts (≈) assume the structure as drawn. Where two headings read alike, the source gives them in different places.

Assays:
F. asiaticum = assay: Spore germination method, indoor toxicity on Fusarium; format: cell-based
Protocol: Experimental methods and specific experimental steps for indoor toxicology determination of Fusarium were as follows:
Step (1): Collection of spores. Five plates (5 mm) evenly distributed on the edge of a medium for Fusarium cultured at 25° C. for 3 d were taken and placed in the CMC medium. After culture under shaking at 175 rpm and 25° C. for 5 d, a filtrate was collected with three layers of sterile lens-cleaning paper. Centrifuging was carried out at 10,000 rpm for 10 min. Washing was carried out twice with sterile water (10,000 rpm, 10 min/time). A spore concentration was adjusted to 1×10^4 ml^1.
Step (2): Setting of concentration gradients of drugs. […] Drugs and spore solutions were mixed, drawn to a cell culture plate and incubated in a thermostat incubator at 25° C. for a period of time.
Step (3): Investigation results and statistical analysis. When a spore germination rate of control group was >90%, spore germination was observed and analyzed statistically.
Spore germination rate (%)=number of germinated spores/number of inspected spores×100
Corrected germination rate (%)=(germination rate for control−germination rate for treatment)/([…])×100

F. graminearum = assay: microbe, parasite or virus in culture; format: cell-based
F. oxysporum = assay: Spore germination method, indoor toxicity on Fusarium; format: cell-based
F. solani = assay: as above; format: cell-based
F. verticilloides = assay: as above; format: cell-based
Pyricularia oryzae = assay: microbe, parasite or virus in culture; format: cell-based
Botrytis cinerea [1] = assay: Spore germination method on Botrytis cinerea; format: cell-based
Penicillium = assay: Hyphae growth rate method (PDA plate method); format: cell-based
Trichoderma = assay: Hyphae growth rate method (PDA plate method); format: cell-based
pathogenic Phytophthora = assay: Hyphae growth rate method (PDA plate method); format: cell-based
Text: Step 1): Setting of concentration gradients of drugs.
Step 2): Determination of EC50 values of drugs against pathogenic Phytophthora with a hyphae growth rate method (PDA plate method)

Fusarium Fg2021 = assay: Indoor in vivo efficacy on Fusarium, wheat coleoptiles; design: species or system Fusarium Fg2021 on wheat (Yumai 35) seedlings; settings: Fg2021, 7 d, vs control
Protocol: Seeds of Yumai 35 were sterilized with 0.1% mercury dichloride for 5 min, rinsed with sterile water for 3 times and immersed for 2 h. The seeds were evenly placed in plastic boxes laid with double layers of sterile filter paper with 30 seeds a box. Cultivation was carried out at 25° C. with 90% humidity and a cycle of 12 h light and 12 h dark in a light incubator for 2 d. […] 12 h later, tips of the coleoptiles were cut. Cut wounds were inoculated with 5 μL of 5×10^5 cells/mL Fg2021 spore solution respectively. Cultivation was carried out in the light incubator. 7 d later, length of disease spot was investigated.

Botrytis cinerea [2] = assay: Indoor in vivo efficacy on Botrytis cinerea, cucumber leaves; settings: 4 d, vs control
wheat scab (Fg2021) = format: in vivo; settings: wheat at flowering, vs control group
Pyricularia oryzae Guy11 = format: in vivo, Pyricularia oryzae Guy 11 on barley leaves; settings: Guy11, 6 d
[3] = 15 μM sprayed on wheat coleoptiles
[4] = 7.5 mM sprayed on wheat coleoptiles

In the case of `O=C(O)CN(CCN(CC(=O)O)CC(=O)O)CCN(CC(=O)O)CC(=O)O` [DTPA, diethylenetriaminepentaacetic acid], the EC50 (F. asiaticum) was 8.76 mg/L (≈ 22.3 µM), the EC50 (F. graminearum; F. graminearum, spore germination) was 16.22 mg/L (≈ 41.2 µM) and the EC50 (F. oxysporum; F. oxysporum, spore germination) was 17.77 mg/L (≈ 45.2 µM). The EC50 (F. solani; F. solani, spore germination) was 17.80 mg/L (≈ 45.3 µM), the EC50 (F. verticilloides; F. verticilloides, spore germination) was 18.82 mg/L (≈ 47.8 µM) and the EC50 (Pyricularia oryzae) was 9.45 mg/L (≈ 24 µM). It also gave an EC50 (Botrytis cinerea [1]; spore germination) of 1.85 mg/L (≈ 4.7 µM), an EC50 (Penicillium; hyphae growth rate) of 4.3704 mg/L (≈ 11.1 µM) and an EC50 (Trichoderma; hyphae growth rate) of 7.6421 mg/L (≈ 19.4 µM). For the same compound, the EC50 (pathogenic Phytophthora) was 20.35 mg/L (≈ 51.7 µM), the “length of disease spot” value (Fusarium Fg2021; [3]) was “significantly shorter disease spots” and the disease spots (Botrytis cinerea [2]; 10 mM sprayed on cucumber leaves) was “significantly shorter disease spots”. For the same compound, the “disease of wheat ears (diseased spikelets)” value (shortened to “disease of wheat ears”) (wheat scab (Fg2021); 7 g ha^−1, field) was “significantly lighter disease”.

For `O=C([O-])CN(CCN(CC(=O)[O-])CC(=O)[O-])CCN(CC(=O)[O-])CC(=O)[O-].[H+].[H+].[Na+].[Na+].[Na+]` [DTPANa3], the EC50 (Botrytis cinerea [1]; spore germination) was 1.88 mg/L and the disease spots (Pyricularia oryzae Guy11; 10 mM sprayed on barley leaves) was “significantly reduced disease spots”.

With `O=C([O-])CN(CCN(CC(=O)[O-])CC(=O)[O-])CCN(CC(=O)[O-])CC(=O)[O-].[Na+].[Na+].[Na+].[Na+].[Na+]` [DTPANa5] the EC50 (Pyricularia oryzae) was 9.32 mg/L and the “length of disease spot” value (Fusarium Fg2021; [3]) was “significantly shorter disease spots”.

`O=C(O)CN(CCN(CC(=O)O)CC(=O)O)CC(=O)O` [EDTA, ethylenediaminetetraacetic acid] showed an EC50 (F. asiaticum; read-out: EC50) of 8.76 mg/L (≈ 30 µM), an EC50 (F. graminearum; Fusarium graminearum) of 17.8 mg/L (≈ 60.8 µM) and an EC50 (F. oxysporum; Fusarium oxysporum) of 17.7 mg/L (≈ 60.5 µM). The EC50 (F. solani; Fusarium solani) was 17.5 mg/L (≈ 59.9 µM), the EC50 (F. verticilloides) was 19 mg/L (≈ 65.1 µM) and the EC50 (Pyricularia oryzae) was 9.75 mg/L (≈ 33.4 µM). It also gave an EC50 (Botrytis cinerea [1]) of 1.63 mg/L (≈ 5.58 µM), an EC50 (Penicillium) of 3.15 mg/L (≈ 10.8 µM) and an EC50 (Trichoderma) of 6.12 mg/L (≈ 20.9 µM). The EC50 (pathogenic Phytophthora; read-out: EC50) was 18.2 mg/L (≈ 62.4 µM), the “length of disease spot” value (Fusarium Fg2021; [4]) was “significantly shorter disease spots” and the disease spots (Botrytis cinerea [2]; 25 mM sprayed on cucumber leaves) was “significantly shorter disease spots”. For the same compound, the “disease of wheat ears” value (wheat scab (Fg2021); 7 g ha^−1, field) was “significantly lighter disease”.

In the case of `O=C([O-])CN(CCN(CC(=O)[O-])CC(=O)[O-])CC(=O)[O-].[Mg+2].[Mg+2]` [EDTAMg2], the disease spots (Botrytis cinerea [2]; 30 mM sprayed on cucumber leaves) was “significantly shorter disease spots”.

With `O=C([O-])CN(CCN(CC(=O)[O-])CC(=O)O)CC(=O)O.[Na+].[Na+]` [EDTANa2] the EC50 (Botrytis cinerea [1]; spore germination) was 1.12 mg/L, the EC50 (pathogenic Phytophthora) was 19.39 mg/L and the disease spots (Pyricularia oryzae Guy11; 30 mM sprayed on barley leaves) was “significantly reduced disease spots”.

Compound `O=C([O-])CN(CCN(CC(=O)[O-])CC(=O)O)CC(=O)[O-].[Na+].[Na+].[Na+]` [EDTANa3] has an EC50 (pathogenic Phytophthora) of 17.56 mg/L.

With `O=C([O-])CN(CCN(CC(=O)[O-])CC(=O)[O-])CC(=O)[O-].[Na+].[Na+].[Na+].[Na+]` [EDTANa4] the EC50 (Pyricularia oryzae) was 9.01 mg/L and the “length of disease spot” value (Fusarium Fg2021; [4]) was “significantly shorter disease spots”.

In the case of `COC(=O)Nc1nc2ccccc2[nH]1` [carbendazim, reference compound], the “disease of wheat ears” value (wheat scab (Fg2021); 140 g ha^−1, field) was “significantly lighter disease”.
